From article PMC6504561 (Science signaling, 2017)

Legend:
[1] = test system: ARHGEF2 Ser^151 phosphorylation; experiment: Western blot of ARHGEF2 Ser^151 phosphorylation in treated HEK293T cells; format: cell-based; settings: 1mM for 6 hours, normalized with total ARHGEF2, three independent experiments
ARHGEF2 = settings: cited from earlier work; for effect on ARHGEF2 release from microtubules and RHOA activation: disruption of polymerized microtubules; for effect on ARHGEF2 activation: GPCR ligands
14-3-3 = molecular target: T1, 14-3-3 (Mus musculus, UniProt P63101); experiment: Microscale thermophoresis; format: binding, murine; settings: MST; peptides at 100 nM; GST-14-3-3 serial dilutions 195 μM to 2 nM; 20 mM HEPES pH 7.4, 150 mM NaCl, 1 mM DTT, 0.05 % Tween20; three independent experiments
T1 sequence (P63101 1-245): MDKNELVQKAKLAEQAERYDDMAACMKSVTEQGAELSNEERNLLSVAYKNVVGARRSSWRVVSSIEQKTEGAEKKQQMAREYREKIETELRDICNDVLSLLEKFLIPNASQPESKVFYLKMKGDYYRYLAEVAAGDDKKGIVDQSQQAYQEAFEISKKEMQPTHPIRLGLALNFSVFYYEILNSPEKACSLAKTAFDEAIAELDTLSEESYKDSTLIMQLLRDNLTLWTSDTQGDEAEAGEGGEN

**Q.** With NC(=O)c1ncn([C@@H]2O[C@H](COP(=O)(O)O)[C@@H](O)[C@H]2O)c1N [5-Aminoimidazole-4-carboxamide ribonucleotide] as the compound, how does the “ARHGEF2 Ser^151 phosphorylation” value [1] read?
**A.** no apparent change in phosphorylation of this residue was observed

**Q.** Which “effect on ARHGEF2 release from microtubules and RHOA activation” value (“effect on ARHGEF2 release” for short) (ARHGEF2) does the source give for COc1cc2c(c(OC)c1OC)-c1ccc(OC)c(=O)cc1[C@@H](NC(C)=O)CC2 [Colchicine] here?
**A.** release ARHGEF2 and lead to potent activation of RHOA

**Q.** With COC(=O)Nc1nc2ccc(C(=O)c3cccs3)cc2[nH]1 [Nocodazol] as the compound, how does the “effect on ARHGEF2 release” value (ARHGEF2) read?
**A.** release ARHGEF2 and lead to potent activation of RHOA

**Q.** Which “effect on ARHGEF2 release” value (ARHGEF2) does the source give for CC(=O)O[C@H]1C(=O)[C@@]2(C)[C@H]([C@H](OC(=O)c3ccccc3)[C@]3(O)C[C@H](OC(=O)[C@H](O)[C@@H](NC(=O)c4ccccc4)c4ccccc4)C(C)=C1C3(C)C)[C@]1(OC(C)=O)CO[C@@H]1C[C@@H]2O [Paclitaxel] here?
**A.** an effect that can be reversed by the microtubule stabilizing drug Paclitaxel

**Q.** With RRPLDPRRR[(p)Ser885]LPAGDA[Lys(FITC)] as the compound, how does the “binding to 14-3-3 (in words)” value (14-3-3) read?
**A.** no binding was detected

**Q.** For SSLSLAKSV[(p)Ser^151]TTNIAG[Lys(FITC)], which “binding to 14-3-3 (in words)” value (14-3-3) is on record?
**A.** no binding was detected

**Q.** Which “effect on ARHGEF2 activation” value (ARHGEF2) does the source give for lysophosphatidic acid here?
**A.** trigger activation of ARHGEF2

**Q.** For thrombin, which “effect on ARHGEF2 activation” value (ARHGEF2) is on record?
**A.** trigger activation of ARHGEF2
